From article PMC9968064, “First Synthesis of DBU-Conjugated Cationic Carbohydrate Derivatives and Investigation of Their Antibacterial and Antifungal Activity” (International Journal of Molecular Sciences, 2023)
Entries after “also recorded” stand apart in the source; their conditions may differ. Read-outs that look alike come from different tables or passages of the source. Blank lines part the entries; values can stand above or below the molecule they belong to.

Experiments:
[1] = tested on: Staphylococcus aureus ssp. aureus (ATCC 6538); set-up: method as in PMID 22866984; settings: reference antibiotics; cited from earlier work
[2] = tested on: Escherichia coli (ATCC 8739); set-up: method as in PMID 24144185; settings: reference antibiotics; cited from earlier work
[3] = tested on: Escherichia coli (ATCC 8739); test: MIC determination (antibacterial susceptibility test, CLSI / Hungarian Pharmacopeia); format: cell-based; settings: Escherichia coli, ATCC8739, tested range 6.25–100 µg/mL
Description: (§1) The antimicrobial activity of twenty-two cationic hexopyranoside-amidinium salts (3, 10, 11, 12, 21, 22, 23, 24, 29, 30, 32, 37, 38, 45, 46, 47, 48, 49, 50, 51, 52 and 53) were compared in susceptibility tests (Table 2). The effectiveness of all compounds was tested on Staphylococcus aureus ssp. aureus (ATCC 6538), Escherichia coli (ATCC 8739) and Candida albicans (ATCC 10231). We tested the antimicrobial activity of the compounds at the concentration range of 6.25–100 µg/mL.
(§2) The detection of the antibacterial and antifungal effects of the tested compounds and the determination of the minimum inhibitory concentration (MIC) were carried out based on the method of CLSI [48] and Hungarian Pharmacopeia (chapters VIII. 2.6.12–13.).
(§3) For the antimicrobial studies, we used three human pathogens as test organisms: Candida albicans (ATCC 10231), Staphylococcus aureus subspecies aureus (ATCC 6538) and Escherichia coli (ATCC 8739).
(§4) Staphylococcus aureus subspecies aureus and Escherichia coli were cultured on tryptic soya agar (TSA) for 18–24 h at 37 °C. Candida albicans was cultured on Sabouraud dextrose agar (SDA) for 18–24 h at 37 °C. To obtain cells for suspension, we made cell suspensions from Staph. aureus, E. coli and C. albicans with the cotton swab suspension technique. The dilution of suspension was then made with 0.85% NaCl solution, absorbance being set to A600nm = 0.06. a volume of 10 μL of these suspensions contained ~4.5–6.0 × 10^4 colony forming unit (CFU) (bacteria) and ~1.5–2.0 × 10^3 CFU for yeast.
(§5) Tested agents were diluted with DMSO; the concentration of stock solutions was 4 mg/mL; and to ensure sterility, the closed sample containers were incubated at 35 °C for 1 h. The highest final concentration was 100 μg/mL.
(§6) Testing was performed in 24-well plates, and cell suspensions were prepared with 0.85% NaCl solution. Stock solutions were made from the agents with DMSO (100%). Final concentrations of used compounds were 6.25–100 µg/mL. […] After inoculation, plates were incubated at 35 °C, and results were then read visually after 18–24 h. If microbial growth could not be detected, results were read visually after 72 h. If there was no growth after 72 h, incubation was continued till the fifth day of the experiment and the results were read visually and with plate reader at 600 nm after 120 h.
(§7) The MIC value of a compound was defined as the minimal concentration that inhibits the growth of bacteria and yeasts comparing to the control. The results of the antibacterial and antifungal tests were read visually after 24, 48, 72 and 120 h. The microbial growth was measured by plate reader at 600 nm after 120 h.

[4] = tested on: Staphylococcus aureus ssp. aureus (ATCC 6538); test: as above; format: cell-based; settings: Staphylococcus aureus, ATCC6538, tested range 6.25–100 µg/mL
Description: as §1, §2, §3, §4, §5, §6, §7

[5] = tested on: Lactobacillus plantarum subsp. plantarum (ATCC 14917); test: Membrane permeabilization by SYTOX green staining; format: cell-based; settings: 6.25 µg/mL
Description: In membrane permeabilization experiments, the Gram-positive Lactobacillus plantarum was used to test the effect of compounds 10 and 22 at 6.25 µg/mL for 48 h. Bacterial cells were stained with SYTOX green (SG) fluorescent dye, which is impermeable on intact membranes but easily penetrates through compromised membranes.
Lactobacillus plantarum subsp. plantarum (ATCC 14917) was purchased from ATCC (Manassas, VA, USA). The membrane permeabilization ability of compounds 10 and 22 was tested on L. plantarum and determined in the brain heart infusion medium (BHI) (CliniChem Ltd., Budapest, Hungary). Bacterial cells were treated with the test compounds at the final concentration of 6.25 µg/mL and samples were taken at 1, 4, 8, 24 and 48 h. Samples were stained with SYTOX green fluorescent dye (ThermoFischer Scientific, Budapest, Hungary) at 1 µM final concentration for 30 min at 37 °C, and flow cytometric measurements were carried out with a Guava Easy Cyte 6HT-2L flow cytometer (Merck Ltd., Darmstadt, Germany). Green (525/30 nm) and red (695/50 nm) fluorescence channels were used to gate out the cells on a green versus red dot plot. The ratio of the SYTOX green (SG) positive bacterial cells was evaluated.

[6] = tested on: rat red blood cells; test: Hemolytic activity on rat red blood cells; format: cell-based, Sprague-Dawley rat; settings: 15 min, 37 °C
Description: The hemolytic activity of compounds 10 and 22 was determined on freshly isolated rat red blood cells (Figure 4).
Blood was collected from a Sprague-Dawley rat into an EDTA tube. Erythrocytes were separated from blood by centrifugation at 1800 rpm for 8 min, washed 3 times with phosphate buffered saline (PBS), and resuspended in PBS. Aliquots of the cell suspension with the respective red blood cell number of 7 × 10^7 were added to PBS containing increasing concentrations of the test compounds or the vehicle DMSO. After gently mixing, each mixture was incubated at 37 °C for 15 min. The released hemoglobin into the supernatant was separated by a rapid centrifugation at 5000 rpm for 5 min. Finally, the absorbance of the released hemoglobin was measured at 540 nm using a Multiskan Go (ThermoFisher, Waltham, MA, USA) microplate reader. The absorbance values were compared to the absorbance of the sample kept in purified water during the incubation as positive control and given as percent hemolysis.

[7] = tested on: HaCaT (human keratinocyte) cell line; test: MTT viability test on HaCaT cells; format: cell-based; settings: 24 h
Description: The cytotoxic effect of six selected compounds (3, 10, 12, 21, 22 and 29) with promising antimicrobial activity was studied on HaCaT (human keratinocyte) cell lines. Using the MTT-test, we determined the viability of the cells (Figure 3), and the half maximal inhibitory concentration (IC50) values of the compounds are summarized in Table 4. The duration of tests was 24 h; the examined concentrations were: 50–25–12.5–6.25–3.125 µg/mL. The IC50 value of a compound was defined as the concentration that inhibits cell growth by 50% relative to the control. […], the medium containing the inhibitor was removed, and 10 μL MTT solution was added to the cells. The plates were then incubated for two hours at 37 °C. The medium from the wells was then carefully aspirated, and MTT formazan dissolved with 100 μL of DMSO aided by gentle agitation on a shaker. After 10 min at room temperature, the absorbances were read at 570 nm by an automatic plate reader. The percentage of viability reflecting the respiratory potential of the cell population in each well was expressed as (absorbance of treated cells/absorbance of control cells) × 100. IC50 values of tested agents were determined by Graphpad (Prism) semi-log line fitting (graphpad.com (8)). The MTT test was performed after treatment and removal of inhibitors followed by the addition of 10 μL of MTT solution to the cells. We tested the toxic effect of compounds 3, 10, 12, 21, 22 and 29 on HaCaT cell line. HaCaT is a spontaneously transformed, aneuploid keratinocyte, an adherent cell type derived from the epithelium of Human […] adult skin. The cell line was immortalized in 1986 under low calcium and high-temperature conditions. Cells were cultured in DMEM medium (iBiotech, Szigetszentmiklós, Hungary) containing 10% fetal bovine serum (FBS, iBiotech, Szigetszentmiklós, Hungary) and 1% antibiotic-antimycotic mix (Penicillin–Streptomycin–Neomycin).

[8] = tested on: Candida albicans (ATCC 10231); test: MIC determination (antifungal susceptibility test); format: cell-based; settings: for MIC: Candida albicans
Description: as §1, §2, §3, §4, §5
as §6, with “Final concentrations of used compounds were 6.25–100 µg/mL.” left out
as §7

[9] = tested on: Candida albicans (ATCC 10231); set-up: method as in PMID 32349998, PMID 25392352; settings: reference antifungal; cited from earlier work

SMILES: CNC(C)C1CCC(N)C(OC2C(N)CC(N)C(OC3OCC(C)(O)C(NC)C3O)C2O)O1 (stereo not drawn) [Gentamicin]
MIC Staphylococcus aureus (ATCC 6538) [1]: 8 [43, 44, 45] µg/mL
MIC Escherichia coli (ATCC 8739) [2]: 8 [42] µg/mL

SMILES: CC(C)(O/N=C(\C(=O)N[C@@H]1C(=O)N2C(C(=O)[O-])=C(C[n+]3ccccc3)CS[C@H]12)c1csc(N)n1)C(=O)O [Ceftazidime]
MIC Staphylococcus aureus (ATCC 6538) [1]: 8 [43, 44, 45] µg/mL
MIC Escherichia coli (ATCC 8739) [2]: 8 [42] µg/mL

MIC [3]: ≥ 100 µg/mL
MIC [4]: < 6.25 µg/mL
MIC Candida albicans (ATCC 10231), lower concentrations ([8]; 10× diluted, tested range 0.625–10.0 µg/mL): 5.0 µg/mL
MIC ([8]; ATCC10231, 10× diluted, tested range 0.625–10.0 µg/mL, read-out: MIC Candida albicans (ATCC 10231), lower concentrations): 5 µg/mL
MIC ([8]; ATCC10231, tested range 6.25–100 µg/mL, read-out: MIC Candida albicans (ATCC 10231)): < 6.25 µg/mL
SMILES: CCS[C@H]1O[C@H](C[N+]2=C3CCCCCN3CCC2)[C@@H](OCc2ccc3ccccc3c2)[C@H](OCc2ccccc2)[C@H]1OCc1ccccc1 [Compound 10]
membrane permeabilization (cellular fluorescence of SYTOX green) ([5]; Figure 5): increased membrane permeabilization
ratio of SYTOX green (SG) positive cells ([5]; after 1 h of incubation): increased the ratio of SG-positive cells
ratio of SYTOX green (SG) positive cells ([5]; after 4 h of incubation): drastically increased
hemolysis compared to negative control PBS ([6]; 6.25 µg/mL): did not cause significant hemolysis
hemolysis (haemoglobin release) ([6]; 50 and 100 µg/mL, comparable to water positive control): significantly increased the hemolysis; also recorded: significant haemoglobin release
cytotoxic effect on HaCaT cells (in words) [7]: only slight cytotoxicity; also recorded: greatly reduced toxicity
IC50 ([7]; Homo sapiens, HaCaT, 50–3.125 µg/mL): 15.3 ± 0.78 µg/mL
effect on HaCaT cell viability at antibacterially and antifungally active concentrations ([7]; ≤6.25 µg/mL): hardly affected the cell viability

SMILES: C[C@@H]1[C@H](O)[C@@H](C)/C=C/C=C/C=C/C=C/C=C/C=C/C=C/[C@H](O[C@@H]2O[C@H](C)[C@@H](O)[C@H](N)[C@@H]2O)C[C@@H]2O[C@](O)(C[C@@H](O)C[C@@H](O)[C@H](O)CC[C@@H](O)C[C@@H](O)CC(=O)O[C@H]1C)C[C@H](O)[C@H]2C(=O)O [Amphotericin B]
MIC Candida albicans (ATCC 10231) [9]: <0.5 [46, 47] µg/mL
